Common to all, as to format: functional
In test [1] the test system is Mus musculus. The test can be described thus: Sedative activity measured after ip administration to female mice and checked for their horizontal movement at a dose of 5 mg/Kg.
The species named for test [2] is Rattus norvegicus. Kind of test: Minimum fully effective dose that prevented implantation of eggs in three out of three rats (MFED) (antifertility).
Test [3] is filed under the species Rattus norvegicus. Kind of test: Dose prevented implantation in two out of 3 rats;.
Test [4] deals with Mus musculus. Kind of test: Sedative activity measured after ip administration to female mice and checked for their horizontal movement at a dose of 1 mg/Kg.
The test system of test [5] is Mus musculus. Kind of test: Sedative activity measured after ip administration to female mice and checked for their horizontal movement at a dose of 10 mg/Kg.
For test [6], the species on record is Rattus norvegicus. The test can be described thus: Dose prevented implantation in two out of 3 rats.
For test [7], the species on record is Rattus norvegicus. The test can be described thus: Dose prevented implantation in two out of three rats.

As for `CCC1=C(c2ccc(O)cc2)c2ccc(OCCN(C)C)cc2Oc2ccccc21`, the Reduction in movement in the test with Mus musculus [1] was 70%. The MFED in the test listed under Rattus norvegicus [2] was found to be 10 mg/kg.

Consider `CC/C1=C(\c2ccccc2)c2ccc(OCC(O)CO)cc2SCc2ccccc21` (centres undefined), for which the Dose in the test listed under Rattus norvegicus [3] worked out at 5 mg/kg.

For the compound `C=CCOc1ccc2c(c1)SCc1ccccc1/C(CC)=C\2c1ccccc1`, the MFED in the test listed under Rattus norvegicus [2] was 5 mg/kg.

`CC/C1=C(\c2ccccc2)c2ccc(OCCN(C)C)cc2SCc2ccccc21` came in with an MFED in the test listed under Rattus norvegicus [2] of 0.5 mg/kg.

The compound `CCC1=C(c2ccccc2)c2ccc(OCC(O)CO)cc2Oc2ccccc21` (centres undefined) displayed an MFED in the test filed under Rattus norvegicus [2] of 10 mg/kg.

`CC/C(=C(\c1ccccc1)c1ccc(OCCN(C)C)cc1)c1ccccc1` [TAMOXIFEN]: the MFED in the test listed under Rattus norvegicus [2] was 0.1 mg/kg.

For the compound `CCC1=C(c2ccccc2)c2ccc(O)cc2Sc2ccccc21`, the Reduction in movement in the test on Mus musculus [4] was 34%; in the test on Mus musculus [5], 72%; in the test with Mus musculus [1], 60%. Besides, in the test listed under Rattus norvegicus [2], the MFED is >5 mg/kg.

Turning to `CCC1=C(c2ccccc2)c2ccc(OCC(O)CO)cc2Sc2ccccc21` (centres undefined), the results for the Reduction in movement in the test on Mus musculus [4] and in the test on Mus musculus [1] were 33% and 84%, respectively. Also, the Dose in the test listed under Rattus norvegicus [6] was ~25 mg/kg.

For the compound `CN(C)CCCN1c2ccccc2Sc2ccc(Cl)cc21` [CHLORPROMAZINE], in the test with Mus musculus [4], the Reduction in movement is on record as 73%.

For the compound `C=CCOc1ccc2c(c1)Oc1ccccc1C(CC)=C2c1ccccc1`, in the test filed under Rattus norvegicus [2], the MFED is >25 mg/kg.

In turn, `CC/C1=C(\c2ccc(O)cc2)c2ccc(OCCN(C)C)cc2SCc2ccccc21` gave a Reduction in movement in the test with Mus musculus [1] of 61%. For the same compound, the MFED in the test listed under Rattus norvegicus [2] stood at 0.5 mg/kg.

Turning to `CCC1=C(c2ccc(O)cc2)c2ccc(OCCN(C)C)cc2Sc2ccccc21`, the Reduction in movement in the test on Mus musculus [5] came out at 45%. This compound also had an MFED in the test listed under Rattus norvegicus [2] of 0.5 mg/kg.

As for `C=CCOc1ccc2c(c1)Oc1ccccc1C(CC)=C2c1ccc(O)cc1`, in the test listed under Rattus norvegicus [2], the MFED is >25 mg/kg.

In turn, `C=CCOc1ccc2c(c1)SCc1ccccc1/C(CC)=C\2c1ccc(O)cc1` had an MFED in the test listed under Rattus norvegicus [2] of 25 mg/kg. Besides, the Dose in the test listed under Rattus norvegicus [6] is ~10 mg/kg.

On to `CCC1=C(c2ccccc2)c2ccc(OCCN(C)C)cc2Sc2ccccc21`, for which the values for the Reduction in movement in the test with Mus musculus [4] and in the test on Mus musculus [5] were 49% and 46%, respectively. This compound returned an MFED in the test listed under Rattus norvegicus [2] of 5 mg/kg. The Dose in the test listed under Rattus norvegicus [6] is ~1 mg/kg.

`C=CCOc1ccc2c(c1)Sc1ccccc1C(CC)=C2c1ccccc1`: the figures for the Reduction in movement with Mus musculus [4] and with Mus musculus [1] were 48% and 76%, respectively. Besides, the MFED in the test filed under Rattus norvegicus [2] is >25 mg/kg.

In the test filed under Rattus norvegicus [2], `CCC1=C(c2ccccc2)c2ccc(OCCN(C)C)cc2Oc2ccccc21` yielded an MFED of 25 mg/kg. Also, in the test filed under Rattus norvegicus [7], the Dose was ~10 mg/kg.

`C=CCOc1ccc2c(c1)Sc1ccccc1C(CC)=C2c1ccc(O)cc1` showed an MFED in the test filed under Rattus norvegicus [2] of 5 mg/kg.

On to `CC/C1=C(\c2ccc(O)cc2)c2ccc(OCC(O)CO)cc2SCc2ccccc21` (centres undefined), for which, in the test on Mus musculus [1], the Reduction in movement was found to be 62%. This compound had an MFED in the test listed under Rattus norvegicus [2] of 5 mg/kg.

`CCC1=C(c2ccc(O)cc2)c2ccc(OCC(O)CO)cc2Oc2ccccc21` (centres undefined): the Reduction in movement with Mus musculus [1] was 61%. For the same compound, the MFED in the test filed under Rattus norvegicus [2] was determined as 25 mg/kg. In the test filed under Rattus norvegicus [6], this compound came in with a Dose of 10 mg/kg.

The compound `CCC1=C(c2ccc(O)cc2)c2ccc(OCC(O)CO)cc2Sc2ccccc21` (centres undefined) yielded an MFED in the test filed under Rattus norvegicus [2] of 5 mg/kg.
